Assay results: patent US20180153995A1, “USE OF ANTIMICROBIAL POLYMERS FOR RE-SENSITIZATION OF MICROORGANISMS UPON EMERGENCE OF RESISTANCE TO ANTI-MICROBIAL AGENTS” (Technion Research & Development Foundation Limited, priority 2008, published 2018)
Like-named read-outs stand apart in the source and are kept apart here.

Legend:
P. mirabilis 1285 [1] = assay type: cell-based, Proteus mirabilis; settings: no polymer (None), Table 12
Experimental: (§1) MICs were determined by microdilution susceptibility testing in 96-well plates (by Nunc) using inocula of 10^5 bacteria per ml. Cell populations were evaluated by optical density measurements at 620 nm and were calibrated against a set of standards. Hundred (100) μl of a bacterial suspension were added to 100 μl of culture medium (control) or to 100 μl of culture medium containing various polymer concentrations in 2-fold serial dilutions. Inhibition of proliferation was determined by optical density measurements at 620 nm after an incubation period of 24 hours at 37° C.
100 μl of a bacterial suspension were added to 100 μl of culture medium (control) or to 100 μl of culture medium containing various antibiotic and C14(9-ene)KKNC12KNH2 (SEQ ID NO: 5) concentrations in 2-fold serial dilutions. Inhibition of proliferation was determined by optical density measurements at 620 nm after an incubation period of 24 hours at 37° C.

E. coli G11a1 = test: Antibiotic MIC with or without sub-MIC polymer (Tables 20, 21); assay type: cell-based, Escherichia coli
Experimental: as §1

E. coli AG100/ks = test: as above; assay type: cell-based, Escherichia coli
P. aeruginosa 8732 = test: Antibiotic MIC by microdilution with or without sub-MIC polymer; assay type: cell-based, Pseudomonas aeruginosa
Experimental: as §1
Inhibition of proliferation was determined by optical density measurements at 620 nm after an incubation period of 24 hours at 37° C.

[2] = test system: E. coli K-12 efflux knockout mutant; assay type: cell-based, Escherichia coli; settings: E. coli AG100A (efflux−)
Procedure, shortened: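 Broth microdilution, inocula 10^5 bacteria/ml, 24 h at 37 °C. Growth read as OD620 against calibration standards.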

P. mirabilis 1285 [3] = assay type: cell-based, Proteus mirabilis
S. aureus 15819 = test: Antibiotic MIC by microdilution with or without sub-MIC polymer; assay type: cell-based, Staphylococcus aureus; settings: S. aureus 15819
Experimental: MICs were determined by microdilution susceptibility testing in 96-well plates (Nunc) using inocula of 10^5 bacteria per ml. One hundred (100) μl of a bacterial suspension were added to 100 μl of culture medium (control) or to 100 μl of culture medium containing various antibiotic and C12(5-ene)KKNC12KNH2 (SEQ ID NO: 2) concentrations in 2-fold serial dilutions. Inhibition of proliferation was determined by optical density measurements at 620 nm after an incubation period of 24 hours at 37° C.

E. coli AG100 = test: Antibiotic MIC with or without sub-MIC polymer (Tables 20, 21); assay type: cell-based, Escherichia coli
MRSA 15852 = assay type: cell-based, Staphylococcus aureus; settings: S. aureus 15852
Experimental: The fractionary inhibitory (FIC) concentration index for combinations of two antimicrobial agents was calculated as follows: FIC index=FICA+FICB=A/MICA+B/MICB where A and B are the MIC values of agent A and agent B in the combination, MICA and MICB are the MICs of agent A and agent B alone, and FICA and FICB are the FICs of agent A and agent B.
The FIC indexes were interpreted as follows: less than 0.5 indicates a clear re-sensitizing effect; from 0.5 to 4 indicates a marginal or null re-sensitizing effect; and over 4 indicates antagonism.

E. coli D21 = test: Antibiotic MIC with or without sub-MIC polymer (Tables 20, 21); assay type: cell-based, Escherichia coli
[4] = +¼ MIC (1.6 μM) C12(5-ene)KKNC12KNH2
[5] = +½ MIC (3.12 μM) C12(5-ene)KKNC12KNH2
[6] = +⅓ MIC (2.1 μM) C12(5-ene)KKNC12KNH2

CC1(C)S[C@@H]2[C@H](NC(=O)Cc3ccccc3)C(=O)N2[C@H]1C(=O)O [Penicillin G, penicillin G]
Antibiotic MIC (P. mirabilis 1285 [1]): 512 µg/mL | Antibiotic MIC, None (E. coli G11a1; antibiotic alone (Table 20)): 512 µg/mL | Antibiotic MIC, None (E. coli G11a1; antibiotic alone (Table 21)): 512 µg/mL | Antibiotic MIC, None (E. coli AG100/ks; antibiotic alone (Table 20)): >512 µg/mL | Antibiotic MIC, None (E. coli AG100/ks; antibiotic alone (Table 21)): >512 µg/mL | Antibiotic MIC in presence of C12K(NC8K)5NH2 (SEQ ID NO: 3), +¼ MIC (E. coli AG100/ks; polymer at ¼ of its MIC): >512 µg/mL | Antibiotic MIC in presence of C12K(NC8K)5NH2 (SEQ ID NO: 3), +½ MIC (E. coli AG100/ks; polymer at ½ of its MIC): >512 µg/mL | Antibiotic MIC in presence of C12K(NC8K)5NH2 (SEQ ID NO: 3), +⅓ MIC (E. coli AG100/ks; polymer at ⅓ of its MIC): >512 µg/mL | Antibiotic MIC (P. aeruginosa 8732): 512 µg/mL | Antibiotic MIC (P. aeruginosa 8732; P. aeruginosa 8732, +½ MIC (3.12 μM) C16(9-ene)KKNC12KNH2): 512 µg/mL | Antibiotic MIC (P. aeruginosa 8732; P. aeruginosa 8732, +⅓ MIC (2.1 μM) C16(9-ene)KKNC12KNH2): 512 µg/mL | Antibiotic MIC (P. aeruginosa 8732; P. aeruginosa 8732, no polymer (None), Table 10): 512 µg/mL | Antibiotic MIC, None ([2]; antibiotic alone (Table 16)): 8 µg/mL | Antibiotic MIC, None ([2]; antibiotic alone (Table 17)): 8 µg/mL | Antibiotic MIC in presence of C12K(NC8K)7NH2 (SEQ ID NO: 4), +¼ MIC ([2]; polymer at ¼ of its MIC (Table 16)): 8 µg/mL | Antibiotic MIC in presence of C12K(NC8K)7NH2 (SEQ ID NO: 4), +½ MIC ([2]; polymer at ½ of its MIC (Table 16)): 4 µg/mL | Antibiotic MIC in presence of C12K(NC8K)7NH2 (SEQ ID NO: 4), +⅓ MIC ([2]; polymer at ⅓ of its MIC (Table 16)): 8 µg/mL | Antibiotic MIC in presence of the OAK, +¼ MIC ([2]; the OAK at ¼ of its MIC (Table 17)): 4 to 8 µg/mL | Antibiotic MIC in presence of the OAK, +½ MIC ([2]; the OAK at ½ of its MIC (Table 17)): 4 µg/mL | Antibiotic MIC in presence of the OAK, +⅓ MIC ([2]; the OAK at ⅓ of its MIC (Table 17)): 4 to 8 µg/mL | Antibiotic MIC (P. mirabilis 1285 [3]; +¼ MIC (1.6 μM) C12K(KNC12K)2NH2): 512 µg/mL | Antibiotic MIC (P. mirabilis 1285 [3]; +½ MIC (3.12 μM) C12K(KNC12K)2NH2): 512 µg/mL | Antibiotic MIC (P. mirabilis 1285 [3]; +⅓ MIC (2.1 μM) C12K(KNC12K)2NH2): 512 µg/mL | Antibiotic MIC (S. aureus 15819; [4]): 8 to 12 µg/mL | Antibiotic MIC (S. aureus 15819; +¼ MIC (1.6 μM) C12K(KNC12K)3NH2): 4 µg/mL | Antibiotic MIC (S. aureus 15819; +¼ MIC (1.6 μM) C12KKNC12KNH2): 8 µg/mL | Antibiotic MIC (S. aureus 15819; [5]): 4 µg/mL | Antibiotic MIC (S. aureus 15819; +½ MIC (3.12 μM) C12K(KNC12K)3NH2): 0.5 µg/mL | Antibiotic MIC (S. aureus 15819; +½ MIC (3.12 μM) C12KKNC12KNH2): 2 µg/mL | Antibiotic MIC (S. aureus 15819; [6]): 8 µg/mL | Antibiotic MIC (S. aureus 15819; +⅓ MIC (2.1 μM) C12K(KNC12K)3NH2): 2 µg/mL | Antibiotic MIC (S. aureus 15819; +⅓ MIC (2.1 μM) C12KKNC12KNH2): 4 µg/mL | Antibiotic MIC (S. aureus 15819; no polymer (None), Table 8): 16 µg/mL | Antibiotic MIC (S. aureus 15819; no polymer (None), Table 11): 16 µg/mL | Antibiotic MIC (S. aureus 15819; no polymer (None), Table 13): 16 µg/mL | Antibiotic MIC, None (E. coli AG100; antibiotic alone (Table 20)): 32 µg/mL | Antibiotic MIC, None (E. coli AG100; antibiotic alone (Table 21)): 32 µg/mL | Antibiotic MIC in presence of C12K(NC8K)5NH2 (SEQ ID NO: 3), +¼ MIC (E. coli AG100; polymer at ¼ of its MIC): 16 µg/mL | Antibiotic MIC in presence of C12K(NC8K)7NH2 (SEQ ID NO: 4), +¼ MIC (E. coli AG100; polymer at ¼ of its MIC): 16 to 32 µg/mL | Antibiotic MIC in presence of C12K(NC8K)5NH2 (SEQ ID NO: 3), +½ MIC (E. coli AG100; polymer at ½ of its MIC): 8 µg/mL | Antibiotic MIC in presence of C12K(NC8K)7NH2 (SEQ ID NO: 4), +½ MIC (E. coli AG100; polymer at ½ of its MIC): 8 µg/mL | Antibiotic MIC in presence of C12K(NC8K)5NH2 (SEQ ID NO: 3), +⅓ MIC (E. coli AG100; polymer at ⅓ of its MIC): 16 µg/mL | Antibiotic MIC in presence of C12K(NC8K)7NH2 (SEQ ID NO: 4), +⅓ MIC (E. coli AG100; polymer at ⅓ of its MIC): 8 to 16 µg/mL | Antibiotic MIC (MRSA 15852; [4]): 32 µg/mL | Antibiotic MIC (MRSA 15852; +¼ MIC (1.6 μM) C12KKNC12KNH2): 64 µg/mL | Antibiotic MIC (MRSA 15852; [5]): 32 µg/mL | Antibiotic MIC (MRSA 15852; +½ MIC (3.12 μM) C12KKNC12KNH2): 64 µg/mL | Antibiotic MIC (MRSA 15852; [6]): 32 µg/mL | Antibiotic MIC (MRSA 15852; +⅓ MIC (2.1 μM) C12KKNC12KNH2): 64 µg/mL | Antibiotic MIC (MRSA 15852; no polymer (None), Table 8): 32 µg/mL | Antibiotic MIC (MRSA 15852; no polymer (None), Table 11): 64 µg/mL | Antibiotic MIC, None (E. coli D21; antibiotic alone (Table 20)): 512 µg/mL | Antibiotic MIC, None (E. coli D21; antibiotic alone (Table 21)): 512 µg/mL | Antibiotic MIC in presence of C12K(NC8K)5NH2 (SEQ ID NO: 3), +¼ MIC (E. coli D21; polymer at ¼ of its MIC): 512 µg/mL | Antibiotic MIC in presence of C12K(NC8K)7NH2 (SEQ ID NO: 4), +¼ MIC (E. coli D21; polymer at ¼ of its MIC): 512 µg/mL | Antibiotic MIC in presence of C12K(NC8K)5NH2 (SEQ ID NO: 3), +½ MIC (E. coli D21; polymer at ½ of its MIC): 256 µg/mL | Antibiotic MIC in presence of C12K(NC8K)7NH2 (SEQ ID NO: 4), +½ MIC (E. coli D21; polymer at ½ of its MIC): 256 µg/mL | Antibiotic MIC in presence of C12K(NC8K)5NH2 (SEQ ID NO: 3), +⅓ MIC (E. coli D21; polymer at ⅓ of its MIC): 256 to 512 µg/mL | Antibiotic MIC in presence of C12K(NC8K)7NH2 (SEQ ID NO: 4), +⅓ MIC (E. coli D21; polymer at ⅓ of its MIC): 512 µg/mL
